Data set [1] has as its target T1, site of dopamine reuptake (Rattus norvegicus, UniProt P23977).
T1 construct: The striata are removed immediately and then stored at -80° C. until used; from tissue; host or cells: rat striatum membranes (male CD Sprague-Dawley)
The data set is described as follows: Inhibition of binding at the site of dopamine reuptake in vitro in rat striatum ([3H]mazindol). The arrangement: species or system rat (male, CD Sprague-Dawley). Conditions: pH 7.7, mean of three tests. The protocol:
Inhibition Of Binding At the Site of Dopamine Reuptake In Vitro In Rat Striatum
Rats, (male, CD Sprague-Dawley, 200-250 g) are sacrificed by decapitation. The striata are removed immediately and then stored at -80° C. until used. On the day of the manipulation, the striata are thawed, coated with buffer and then brought into suspension. This suspension is then poured into the centrifuge tubes, made up to 10 ml with pH 7.7 buffer (50 mM Tris (HCl), 120 mM NaCl, 5 mM KCl) and thereafter centrifuged at 20,000 rpm for 15 minutes. The pellet is resuspended in 10 ml of buffer and is then subjected to a second centrifugation (20,000 rpm for 15 minutes). The above procedure is repeated, so that the homogenate undergoes a third centrifugation identical to the previous two. The pellet thereby obtained is suspended in a few ml of buffer and then homogenized. The membrane suspension is then diluted in a requisite volume. Increasing concentrations of the test compounds dissolved in the buffer are distributed. Aliquots of the membrane suspension are then added. The radioactive ligand ([^3 H]mazindol), used as a label of the type of site studied, is then distributed manually in the tubes, which are thereafter incubated (final volume 1 ml).
The reaction is stopped by filtration through a Harvester system (Whatman GF/B filter strip). The filter strip is then washed three times with 5 ml of buffer before being placed in an automatic cutting system.
The cut filters fall into counting vials, and 4 ml of scintillation fluid are distributed automatically by the system. Each sample is subjected to counting of the radioactivity using a liquid scintillation counter.
Three series of tests (test 1, test 2 and test 3) are carried out with each compound for determination of the IC50, each determination being carried out on two different samples.
The specific binding is defined as the difference between the total binding and the non-specific binding (displace by an excess of non-radioactive ligand). The values obtained in counts per minute (cpm) are then converted into disintegrations per minute (dpm) in accordance with the efficiency of the counter.
The IC50 is defined as the concentration of the substance under study needed to displace 50% of the specifically bound radioactive label.
The experimental data emanating from the liquid scintillation counter (Kontron) are stored on diskette, managed by a program (Convert) and then analysed by means of Ligand* software, which calculates the 50% inhibitory concentration (IC50) and the inhibition constant Ki [formula]
where [L] represents the concentration of the radioactive ligand and Kd the dissociation constant of this same ligand. (The values of the IC50 and of Ki are inversely proportional to the affinity of the product under study for the binding site.

For data set [2], the system named is mice. The data set is described as follows: Toxicity in mice via the i.p. route (LD0, LD100). The class given is in vivo. An excerpt: The LD0 and LD100 values in mice via the i.p. route are also given in this table.
Another data set relates to rats. The data set is described as follows: Induction of stereotyped movements in rats. The class given is in vivo, rat (male, CD, Sprague-Dawley). To be noted: i.p. On the procedure:
Induction of Stereotyped Movements in Rats
Groups of 6 rats (male, CD, Sprague-Dawley, Charles River, 160-200 g) receive CRL 41 789 or CRL 41 790 intraperitoneally in distilled water (5 ml/kg), and are immediately place in Flexiglas cages (20×10×10cm). The stereotyped movements are scored from 0 to 3 every 10 minutes until they have disappeared.

Data set [3] concerns mice. The data set is described as follows: Locomotor activity of mice. Format: in vivo, mice (male, NMRI). Conditions: recorded over 30 minutes. The protocol:
Effects on the Locomotor Activity of Mice
Half an hour after receiving CRL 41 789 or CRL 41 790 intraperitoneally in distilled water, groups of 6 to 24 mice (male, NMRI, C.R.E. Janvier, 18-22 g) are placed individually in crossed-beam activity cages, where their locomotor activity (number of rays crossed) is recorded over 30 minutes.

The subject of data set [4] is mice. The data set is described as follows: Test of "behavioural despair" in mice. The class given is in vivo, mice (male, CD1). An excerpt: Effects on the Test of "Behavioural Despair"in Mice
Half an hour after receiving CRL 41 789 or CRL 41 790 intraperitoneally in distilled water, groups of 6 or 12 mice (male, CD1, Charles River, 18-22 g) are placed individually in a high vessel made of transparent glass, filled with water to a height of 6 cm. The total period of immobility between the beginning of the 3rd minute and the end of the 6th minute following immersion of the animal is noted.

Data set [5] in a line: Solubility of the product. Format: physicochemical.
In data set [6] the test system is anaesthetized rat striatum. The data set is described as follows: Extracellular levels of neuro-mediators and metabolites in anaesthetized rat striatum (intracerebral microdialysis). The class given is in vivo, rat (male, Sprague-Dawley CD). To be noted: doses of 16, 32 or 64 mg/kg i.p.; for 3-methoxytyramine (3MT) concentration in the dialysate / dopamine concentration in the dialysate: hydrochloride. On the procedure:
Effect On The Extracellular Levels Of Neuro-Mediators And Metabolites In Anaesthetized Rat Striatum (Intracerebral Microdialysis)
This determination is obtained by high performance liquid chromatography coupled with and electro-chemical detection.
HPLC: Spherisorb cartridge, ODS-2 (5 μm), L=[…], =4 mm, Merck. Mobile phase: 0.1 M potassium phosphate, 0.1 M citric acid, octane-sulphonic acid 50 mg/l, 0.1 mM EDTA, 4% methanol, ph 4.80 , pump output 0.9 ml/min
electrochemical detection: BAS detector, LC-4C, +750 mV
analyser: Millenium, Waters
Rats (male, Sprague-Dawley CD, Charles River, 280-300 g) anaesthetized with chloral hydrate (400 mg/kg, i.p.) are placed in a stereotactic apparatus. The micro-dialysis probe (CMA/11 L=3 mm, =0.24 mm, Carnegie) is implanted according to the coordinates of the Paxinos and Watson atlas in the anterior portion of the left striatum: I=10, L=2.4, H=-6.1.
Ringer's fluid (CaCl2 =2.4 mM, KCl=4 mM, NaCl=147 mM) is perfused at 2 μl/min into the probe. The dialysates collected every 20 minutes are cooled (to approximately 6° C.) and then analysed.
After one hour of collection, groups of 6 rats receive intraperitoneally in a volume of 5 ml/kg:
either an injection of isotonic sodium chloride solution,
or the test compound dissolved in distilled water at doses of 16, 32 or 64 mg/kg.
In the dialysate, the dopamine (DA), 3,4-dihydroxyphenylacetic acid (DOPAC), homovanillic acid (HVA) and 3-methoxytyramine (3MT) concentrations are measured by electrochemical detection and quantified with respect to a standard series, and are corrected in accordance with the efficiency of the probe determined in vitro before each test.
Only tests in which the probes display an efficiency of more than 5% are taken into account.

Where [7] appears, read: Inhibition of binding at the site of dopamine reuptake IC50, rat striatum.
The mark [8] stands for this setting: Inhibition of binding at the site of dopamine reuptake Ki, rat striatum.
The mark [9] stands for this setting: rat striatum, read-out: Inhibition of binding at the site of dopamine reuptake IC50.
Setting [10] is: rat striatum, read-out: Inhibition of binding at the site of dopamine reuptake Ki.

Where a name gives a salt, the structure may show the parent alone. Read-outs that look alike come from different tables or passages of the source.

T1 sequence (P23977 whole entry): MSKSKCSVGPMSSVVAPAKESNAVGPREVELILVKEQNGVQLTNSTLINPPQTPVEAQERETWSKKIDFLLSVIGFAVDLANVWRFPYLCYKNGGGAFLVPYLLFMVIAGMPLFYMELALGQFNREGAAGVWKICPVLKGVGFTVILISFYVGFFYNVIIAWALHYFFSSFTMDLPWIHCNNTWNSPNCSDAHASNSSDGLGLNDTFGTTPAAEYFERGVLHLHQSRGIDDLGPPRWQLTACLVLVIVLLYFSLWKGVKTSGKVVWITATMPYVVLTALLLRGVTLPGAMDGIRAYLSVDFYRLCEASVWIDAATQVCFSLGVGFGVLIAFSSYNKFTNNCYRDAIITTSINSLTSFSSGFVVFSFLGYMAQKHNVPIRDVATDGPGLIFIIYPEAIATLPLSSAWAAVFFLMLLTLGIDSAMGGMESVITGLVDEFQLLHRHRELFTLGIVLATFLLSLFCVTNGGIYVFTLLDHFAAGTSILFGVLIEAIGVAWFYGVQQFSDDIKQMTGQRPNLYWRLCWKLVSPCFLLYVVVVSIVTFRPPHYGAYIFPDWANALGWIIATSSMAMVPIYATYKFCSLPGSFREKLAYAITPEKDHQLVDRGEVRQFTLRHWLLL

Turning to `CC(C)(C)NCC(SCC(N)=O)c1ccc(Cl)c(Cl)c1` (racemic) [CRL 41 414, [α-(tert-butylaminomethyl)-3,4-dichlorobenzyl]thioacetamide], in data set [1] (setting [7]), the IC50 came to 31 nM. The Ki in data set [1] (setting [8]) was found to be 63 nM. In the data set with mice [2], this compound yielded an LD0 of 128 mg/kg and an LD100 of 256 mg/kg.

On to `CC(C)(C)NCC(SCC(N)=O)c1ccc(Cl)c(Cl)c1` (single isomer, unassigned) [CRL 41 789, 1(-)-[α-(tert-butylaminomethyl)-3,4-dichlorobenzyl]thioacetamide hydrochloride], for which the stereotyped movements result with rats (16 and 32 mg/kg) was “appearance of intense and lasting stereotyped movements”. In the data set on mice [3] (i.p., 2, 8 and 32 mg/kg), the locomotor activity result was “marked and statistically significant increase in the locomotor activity of the mice is observed, the increase rising with the dose”. In the data set on mice [4] (i.p., 0.5, 2, 8 and 32 mg/kg), the period of immobility result is given as “a decrease in the period of immobility is observed, the decrease rising with the dose”. For the same compound, in the data set with mice [4] (i.p., 8 and 32 mg/kg), the “period of immobility, significance of the effect” value was “marked and statistically significant”. For the same compound, in data set [1] (setting [9]), the IC50 amounted to 44 nM. For the same compound, the inhibitory constant (Ki) in data set [1] (setting [10]) amounted to 24 nM. In the data set with mice [2] (hydrochloride), this compound showed an LD0 of 64 mg/kg and an LD100 of 256 mg/kg. In data set [5], the solubility in ethanol result is listed as “soluble”, the solubility in ether result is “insoluble”, the “solubility in ethyl acetate” value was “insoluble” and the solubility in water result is “soluble”. Moreover, in data set [6], the “DOPAC concentration in the dialysate” value is “without modification”, the “HVA concentration in the dialysate” value is given as “without modification”, the “3-methoxytyramine (3MT) concentration in the dialysate” value is on record as “significant increase” and the “dopamine concentration in the dialysate” value is “significant increase”.

`CC(C)(C)NCC(SCC(N)=O)c1ccc(Cl)c(Cl)c1` (single isomer, unassigned) [CRL 41 790, d(+)-[α-(tert-butylaminomethyl)-3,4-dichlorobenzyl]thioacetamide hydrochloride]: in the data set on rats (even at the high dose of 128 mg/kg), the stereotyped movements entry is listed as “does not cause the appearance of any stereotyped movement”. For the same compound, the locomotor activity result with mice [3] (i.p., even at 64 mg/kg) was “does not give rise to any increase in the locomotor activity”. Also, in the data set on mice [4] (i.p., even at the high dose of 64 mg/kg), the period of immobility result is reported as “does not give rise to any decrease in the period of immobility”. The IC50 in data set [1] (setting [9]) is 1100 nM. In addition, in data set [1] (setting [10]), the inhibition constant (Ki) came out at 620 nM. In addition, in the data set on mice [2] (hydrochloride), the LD0 was found to be 128 mg/kg and the LD100 is reported as 512 mg/kg. Further, in data set [5], the solubility in ethanol entry is listed as “soluble”, the solubility in ether result is “insoluble”, the “solubility in ethyl acetate” value is “insoluble” and the solubility in methanol result is listed as “soluble”. Also, in data set [5], the solubility in water entry is reported as “soluble”. Also, in data set [6], the “3-methoxytyramine (3MT) concentration in the dialysate” value is “does not cause any modification” and the “dopamine concentration in the dialysate” value is “does not cause any modification”.

Take `CCC(C)(C)NCC(SCC(N)=O)c1ccc(Cl)c(Cl)c1` (stereo not drawn) [CRL 42 059, [α-(tert-amylaminomethyl)-3,4-dichlorobenzyl]thioacetamide hydrochloride]: in data set [1] (setting [7]), the 50% inhibitory concentration (IC50) is 74 nM. This compound also came in with an inhibition constant Ki in data set [1] (setting [8]) of 46 nM. In the data set with mice [2], the LD0 amounted to 30 mg/kg and the LD100 is 256 mg/kg. Besides, in data set [5] (alcohols), the solubility in alcohols entry is recorded as “soluble”. In data set [5], the solubility in ether entry was “insoluble”, the “solubility in ethyl acetate” value is given as “insoluble” and the solubility in water entry is reported as “soluble”.

`NC(=O)CSC(CNC12CC3CC(CC(C3)C1)C2)c1ccc(Cl)c(Cl)c1` (stereo not drawn) [CRL 42 060, [α-(1-adamantylaminomethyl)-3,4-dichlorobenzyl]thioacetamide hemifumarate]: the IC50 in data set [1] (setting [7]) was determined as 40 nM. In addition, in data set [1] (setting [8]), the affinity corresponds to a Ki of 44 nM. In the data set on mice [2], this compound showed an LD0 of 128 mg/kg and an LD100 of 1024 mg/kg. For the same compound, the “solubility in DMSO” value in data set [5] (DMSO) was “soluble”. Moreover, in data set [5], the solubility in ether entry is listed as “insoluble”, the “solubility in ethyl acetate” value is given as “insoluble”, the solubility in methanol entry is listed as “soluble” and the solubility in water entry was “insoluble”.

The term IC50 denotes the midpoint of a concentration-inhibition curve. Broadly, the Ki is the equilibrium dissociation constant of an inhibitor or competing ligand from its target.

The values are drawn from patent US6268397A, “Use of (α-aminomethyl-3,4-dichlorobenzyl) thioacetamide derivatives for inhibiting dopamine reuptake and new compounds for this use” (Laboratoire. L. Lafon, priority 1995, dated 2001).
